Laboratory results published in article PMC5290327, “SC83288 is a clinical development candidate for the treatment of severe malaria” (Nature Communications, 2017).

Legend:
Experiment in all cases: KINOMEscan
Assay type in all cases: binding
Conditions in all cases: read-out: Remaining enzyme activity
[1] = target: T1, PAK4 (Homo sapiens, UniProt O96013)
T1 construct: purchased Ambit (DiscoverX) KINOMEscan; Cerep
Outline: (§1)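 SC81458 was screened at a single 10 μM final concentration for its ability to compete with an immobilized, active-site directed ligand for each kinase. Kinase in the eluates was measured by quantitative PCR. Beads were blocked with biotin and SeaBlock buffer holding 1% BSA, 0.05% Tween 20 and 1 mM DTT.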

[2] = target: T2, INSR (Homo sapiens, UniProt P06213)
T2 construct: purchased Ambit (DiscoverX) KINOMEscan; Cerep
Outline: as §1

[3] = target: T3, PIK3Cg (Homo sapiens, UniProt P48736)
T3 construct: purchased Ambit (DiscoverX) KINOMEscan; Cerep
Outline: as §1

[4] = target: T4, PRKD2 (Homo sapiens, UniProt Q9BZL6)
T4 construct: purchased Ambit (DiscoverX) KINOMEscan; Cerep
Outline: as §1

[5] = target: T5, FLT3(D835Y) (Homo sapiens, UniProt P36888, D835Y)
T5 construct: purchased Ambit (DiscoverX) KINOMEscan; Cerep
Outline: as §1

[6] = target: T6, MAPKAPK2 (Homo sapiens, UniProt P49137)
T6 construct: purchased Ambit (DiscoverX) KINOMEscan; Cerep
T6 sequence (P49137 whole entry): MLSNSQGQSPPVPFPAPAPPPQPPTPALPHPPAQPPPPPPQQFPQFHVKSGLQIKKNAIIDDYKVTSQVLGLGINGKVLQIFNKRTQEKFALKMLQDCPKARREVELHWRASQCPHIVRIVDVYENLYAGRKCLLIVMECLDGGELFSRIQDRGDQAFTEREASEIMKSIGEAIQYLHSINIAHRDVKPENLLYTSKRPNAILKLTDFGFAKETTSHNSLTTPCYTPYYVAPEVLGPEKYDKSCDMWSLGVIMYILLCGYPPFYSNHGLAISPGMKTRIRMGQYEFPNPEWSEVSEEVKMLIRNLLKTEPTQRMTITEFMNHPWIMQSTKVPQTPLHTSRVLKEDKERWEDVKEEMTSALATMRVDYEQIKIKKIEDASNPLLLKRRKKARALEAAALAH
Outline: as §1

[7] = target: T7, CSNK1d (Homo sapiens, UniProt P48730)
T7 construct: purchased Ambit (DiscoverX) KINOMEscan; Cerep
Outline: as §1

[8] = target: T8, PLK1 (Homo sapiens, UniProt P53350)
T8 construct: purchased Ambit (DiscoverX) KINOMEscan; Cerep
T8 sequence (P53350 whole entry): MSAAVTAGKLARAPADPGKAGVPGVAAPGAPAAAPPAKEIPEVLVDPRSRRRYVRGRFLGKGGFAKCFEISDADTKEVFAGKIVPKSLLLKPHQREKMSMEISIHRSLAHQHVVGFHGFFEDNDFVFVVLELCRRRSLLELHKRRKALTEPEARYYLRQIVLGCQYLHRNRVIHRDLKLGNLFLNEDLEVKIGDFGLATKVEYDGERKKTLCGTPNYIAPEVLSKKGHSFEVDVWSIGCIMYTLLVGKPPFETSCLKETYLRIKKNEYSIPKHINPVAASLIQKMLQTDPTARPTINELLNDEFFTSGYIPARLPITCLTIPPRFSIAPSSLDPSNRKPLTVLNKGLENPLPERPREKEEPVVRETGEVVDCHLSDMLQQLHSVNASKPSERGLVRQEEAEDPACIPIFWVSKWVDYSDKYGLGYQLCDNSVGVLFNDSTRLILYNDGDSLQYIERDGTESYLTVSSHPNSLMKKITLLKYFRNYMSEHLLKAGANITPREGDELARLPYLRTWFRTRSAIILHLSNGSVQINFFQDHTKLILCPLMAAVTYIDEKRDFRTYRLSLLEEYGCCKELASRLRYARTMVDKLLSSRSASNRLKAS
Outline: as §1

[9] = target: T9, MUSK (Homo sapiens, UniProt O15146)
T9 construct: purchased Ambit (DiscoverX) KINOMEscan; Cerep
Outline: as §1

[10] = target: T10, PRKG2 (Homo sapiens, UniProt Q13237)
T10 construct: purchased Ambit (DiscoverX) KINOMEscan; Cerep
T10 sequence (Q13237 whole entry): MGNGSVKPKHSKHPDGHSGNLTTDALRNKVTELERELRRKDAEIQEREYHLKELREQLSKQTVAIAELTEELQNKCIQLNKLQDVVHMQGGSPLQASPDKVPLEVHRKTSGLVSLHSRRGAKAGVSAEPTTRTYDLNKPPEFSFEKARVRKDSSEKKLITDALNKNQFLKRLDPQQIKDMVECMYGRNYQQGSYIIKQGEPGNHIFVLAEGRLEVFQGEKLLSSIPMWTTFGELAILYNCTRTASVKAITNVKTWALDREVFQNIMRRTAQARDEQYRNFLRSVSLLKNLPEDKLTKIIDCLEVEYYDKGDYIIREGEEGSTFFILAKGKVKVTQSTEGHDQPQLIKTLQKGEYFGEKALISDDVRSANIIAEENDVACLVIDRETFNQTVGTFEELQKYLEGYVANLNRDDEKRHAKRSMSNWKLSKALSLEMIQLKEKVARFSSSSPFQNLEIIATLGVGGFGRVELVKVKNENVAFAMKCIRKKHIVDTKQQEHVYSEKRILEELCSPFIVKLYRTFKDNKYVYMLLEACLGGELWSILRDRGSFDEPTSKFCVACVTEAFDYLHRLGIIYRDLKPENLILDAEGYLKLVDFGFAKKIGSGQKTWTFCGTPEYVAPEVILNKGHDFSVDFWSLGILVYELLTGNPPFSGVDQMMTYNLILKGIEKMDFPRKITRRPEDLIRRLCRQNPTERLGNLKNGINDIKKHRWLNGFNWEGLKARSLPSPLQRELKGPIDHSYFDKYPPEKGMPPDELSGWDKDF
Outline: as §1

[11] = target: T11, CDK8 (Homo sapiens, UniProt P49336)
T11 construct: purchased Ambit (DiscoverX) KINOMEscan; Cerep
T11 sequence (P49336 whole entry): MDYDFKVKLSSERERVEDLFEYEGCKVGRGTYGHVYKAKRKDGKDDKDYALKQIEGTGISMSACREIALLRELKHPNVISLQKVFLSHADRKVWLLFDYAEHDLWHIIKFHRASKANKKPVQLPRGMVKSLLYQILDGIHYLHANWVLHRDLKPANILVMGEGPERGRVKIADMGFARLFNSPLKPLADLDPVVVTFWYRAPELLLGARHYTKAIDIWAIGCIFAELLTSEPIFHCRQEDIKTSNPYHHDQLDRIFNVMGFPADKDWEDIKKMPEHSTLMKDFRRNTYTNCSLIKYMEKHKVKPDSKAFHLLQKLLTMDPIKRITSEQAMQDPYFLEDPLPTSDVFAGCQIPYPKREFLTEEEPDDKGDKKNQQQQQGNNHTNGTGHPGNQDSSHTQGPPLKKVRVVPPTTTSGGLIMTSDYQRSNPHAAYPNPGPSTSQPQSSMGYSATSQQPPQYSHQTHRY
Outline: as §1

[12] = target: T12, PIP5K2b (Homo sapiens, UniProt P78356)
T12 construct: purchased Ambit (DiscoverX) KINOMEscan; Cerep
Outline: as §1

[13] = target: T13, TAO1 (Homo sapiens, UniProt Q9UL54)
T13 construct: purchased Ambit (DiscoverX) KINOMEscan; Cerep
Outline: as §1

[14] = target: T14, IKK-alpha (Homo sapiens, UniProt O15111)
T14 construct: purchased Ambit (DiscoverX) KINOMEscan; Cerep
T14 sequence (O15111 whole entry): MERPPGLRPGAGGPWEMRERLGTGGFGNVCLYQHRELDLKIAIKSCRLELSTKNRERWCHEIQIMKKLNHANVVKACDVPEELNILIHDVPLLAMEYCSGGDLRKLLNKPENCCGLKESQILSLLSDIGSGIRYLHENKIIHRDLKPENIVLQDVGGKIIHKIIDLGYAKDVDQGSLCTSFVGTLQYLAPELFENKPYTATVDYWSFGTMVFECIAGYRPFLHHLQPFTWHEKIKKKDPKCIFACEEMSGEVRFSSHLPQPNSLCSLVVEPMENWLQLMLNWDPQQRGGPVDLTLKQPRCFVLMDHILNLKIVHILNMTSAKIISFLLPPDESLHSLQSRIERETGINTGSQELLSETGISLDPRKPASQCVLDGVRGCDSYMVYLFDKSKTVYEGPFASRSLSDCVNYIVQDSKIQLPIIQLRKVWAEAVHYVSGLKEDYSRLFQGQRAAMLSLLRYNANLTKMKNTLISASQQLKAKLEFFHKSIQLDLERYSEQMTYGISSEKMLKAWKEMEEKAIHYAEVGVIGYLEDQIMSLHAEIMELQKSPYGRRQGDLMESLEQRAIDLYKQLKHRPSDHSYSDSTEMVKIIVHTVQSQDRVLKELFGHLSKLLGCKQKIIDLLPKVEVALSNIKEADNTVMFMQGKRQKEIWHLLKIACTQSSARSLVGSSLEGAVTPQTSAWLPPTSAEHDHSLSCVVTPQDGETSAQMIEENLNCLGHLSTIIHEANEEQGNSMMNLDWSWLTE
Outline: as §1

[15] = target: T15, PKAC-apha (Homo sapiens, UniProt P17612)
T15 construct: purchased Ambit (DiscoverX) KINOMEscan; Cerep
Outline: as §1

[16] = target: T16, PDGFRb (Homo sapiens, UniProt P09619)
T16 construct: purchased Ambit (DiscoverX) KINOMEscan; Cerep
Outline: as §1

[17] = target: T17, EPHB3 (Homo sapiens, UniProt P54753)
T17 construct: purchased Ambit (DiscoverX) KINOMEscan; Cerep
Outline: as §1

[18] = target: T18, NEK7 (Homo sapiens, UniProt Q8TDX7)
T18 construct: purchased Ambit (DiscoverX) KINOMEscan; Cerep
Outline: as §1

[19] = target: T19, BRSK1 (Homo sapiens, UniProt Q8TDC3)
T19 construct: purchased Ambit (DiscoverX) KINOMEscan; Cerep
Outline: as §1

[20] = target: T20, BRAF(V600E) (Homo sapiens, UniProt P15056, V600E)
T20 construct: purchased Ambit (DiscoverX) KINOMEscan; Cerep
Outline: as §1

[21] = target: T21, FER (Homo sapiens, UniProt P16591)
T21 construct: purchased Ambit (DiscoverX) KINOMEscan; Cerep
Outline: as §1

[22] = target: T22, MARK2 (Homo sapiens, UniProt Q7KZI7)
T22 construct: purchased Ambit (DiscoverX) KINOMEscan; Cerep
Outline: as §1

[23] = target: T23, FGFR3(G697C) (Homo sapiens, UniProt P22607, G697C)
T23 construct: purchased Ambit (DiscoverX) KINOMEscan; Cerep
T23 sequence (P22607 23-806 G697C): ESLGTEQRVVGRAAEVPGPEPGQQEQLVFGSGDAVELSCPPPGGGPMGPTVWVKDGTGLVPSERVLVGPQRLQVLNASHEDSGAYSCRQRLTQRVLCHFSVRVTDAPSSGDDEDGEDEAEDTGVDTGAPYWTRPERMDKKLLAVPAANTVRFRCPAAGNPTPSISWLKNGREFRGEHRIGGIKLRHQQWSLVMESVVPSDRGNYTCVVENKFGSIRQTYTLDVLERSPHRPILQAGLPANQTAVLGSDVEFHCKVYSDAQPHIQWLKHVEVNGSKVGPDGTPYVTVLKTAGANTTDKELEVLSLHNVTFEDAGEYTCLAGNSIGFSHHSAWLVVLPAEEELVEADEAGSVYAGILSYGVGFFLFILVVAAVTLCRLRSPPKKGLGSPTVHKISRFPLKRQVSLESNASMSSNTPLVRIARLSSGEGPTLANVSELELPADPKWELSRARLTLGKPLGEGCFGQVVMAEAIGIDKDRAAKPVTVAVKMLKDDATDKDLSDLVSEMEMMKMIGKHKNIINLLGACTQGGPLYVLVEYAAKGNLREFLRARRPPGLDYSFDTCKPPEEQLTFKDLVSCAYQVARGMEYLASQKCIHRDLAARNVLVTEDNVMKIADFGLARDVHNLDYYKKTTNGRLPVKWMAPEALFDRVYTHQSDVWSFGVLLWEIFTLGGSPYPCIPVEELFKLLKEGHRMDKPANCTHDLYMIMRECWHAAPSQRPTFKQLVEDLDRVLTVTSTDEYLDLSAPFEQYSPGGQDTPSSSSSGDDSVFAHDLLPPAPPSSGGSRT
Outline: as §1

[24] = target: T24, FRK (Homo sapiens, UniProt P42685)
T24 construct: purchased Ambit (DiscoverX) KINOMEscan; Cerep
Outline: as §1

[25] = target: T25, RIPK1 (Homo sapiens, UniProt Q13546)
T25 construct: purchased Ambit (DiscoverX) KINOMEscan; Cerep
T25 sequence (Q13546 whole entry): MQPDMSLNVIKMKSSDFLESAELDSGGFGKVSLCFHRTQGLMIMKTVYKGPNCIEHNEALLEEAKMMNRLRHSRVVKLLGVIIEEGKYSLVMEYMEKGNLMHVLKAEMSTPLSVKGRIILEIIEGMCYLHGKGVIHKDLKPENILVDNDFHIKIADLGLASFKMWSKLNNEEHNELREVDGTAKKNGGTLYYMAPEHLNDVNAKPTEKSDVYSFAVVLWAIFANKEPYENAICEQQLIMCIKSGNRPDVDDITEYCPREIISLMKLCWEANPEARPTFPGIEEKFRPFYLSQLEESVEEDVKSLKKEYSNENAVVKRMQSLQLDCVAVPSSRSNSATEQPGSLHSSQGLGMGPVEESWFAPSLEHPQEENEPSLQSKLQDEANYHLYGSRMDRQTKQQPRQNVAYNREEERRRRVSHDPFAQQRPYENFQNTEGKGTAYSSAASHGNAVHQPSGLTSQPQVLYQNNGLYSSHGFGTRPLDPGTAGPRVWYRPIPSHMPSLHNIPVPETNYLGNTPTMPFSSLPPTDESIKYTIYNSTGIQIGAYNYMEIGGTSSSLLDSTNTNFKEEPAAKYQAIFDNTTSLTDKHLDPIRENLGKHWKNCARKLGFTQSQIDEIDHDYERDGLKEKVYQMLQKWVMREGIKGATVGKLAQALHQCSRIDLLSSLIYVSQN
Outline: as §1

[26] = target: T26, CAMK2g (Homo sapiens, UniProt Q13555)
T26 construct: purchased Ambit (DiscoverX) KINOMEscan; Cerep
Outline: as §1

[27] = target: T27, SBK1 (Homo sapiens, UniProt Q52WX2)
T27 construct: purchased Ambit (DiscoverX) KINOMEscan; Cerep
Outline: as §1

[28] = target: T28, PIK3CA(E545K) (Homo sapiens, UniProt P42336, E545K)
T28 construct: purchased Ambit (DiscoverX) KINOMEscan; Cerep
Outline: as §1

[29] = target: T29, MST3 (Homo sapiens, UniProt Q9Y6E0)
T29 construct: purchased Ambit (DiscoverX) KINOMEscan; Cerep
T29 sequence (Q9Y6E0 whole entry): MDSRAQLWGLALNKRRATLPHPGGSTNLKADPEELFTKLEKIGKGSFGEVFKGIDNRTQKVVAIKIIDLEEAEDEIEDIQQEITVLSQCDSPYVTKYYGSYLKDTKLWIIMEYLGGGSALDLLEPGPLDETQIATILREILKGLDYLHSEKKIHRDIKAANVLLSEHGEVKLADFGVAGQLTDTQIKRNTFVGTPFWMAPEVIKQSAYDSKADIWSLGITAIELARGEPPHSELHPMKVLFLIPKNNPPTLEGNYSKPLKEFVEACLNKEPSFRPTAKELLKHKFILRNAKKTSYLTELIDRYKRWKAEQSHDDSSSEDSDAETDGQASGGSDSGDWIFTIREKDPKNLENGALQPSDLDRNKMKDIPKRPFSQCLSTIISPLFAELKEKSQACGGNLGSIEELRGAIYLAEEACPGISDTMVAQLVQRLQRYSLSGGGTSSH
Outline: as §1

[30] = target: T30, PIK3CA(H1047Y) (Homo sapiens, UniProt P42336, H1047Y)
T30 construct: purchased Ambit (DiscoverX) KINOMEscan; Cerep
Outline: as §1

[31] = target: T31, MAPKAPK5 (Homo sapiens, UniProt Q8IW41)
T31 construct: purchased Ambit (DiscoverX) KINOMEscan; Cerep
Outline: as §1

[32] = target: T32, ABL1(M351T) (Homo sapiens, UniProt P00519, M351T)
T32 construct: purchased Ambit (DiscoverX) KINOMEscan; Cerep
Outline: as §1

[33] = target: T33, ACVRL1 (Homo sapiens, UniProt P37023)
T33 construct: purchased Ambit (DiscoverX) KINOMEscan; Cerep
Outline: as §1

Compound: CCCCN1CCN(C(=N)c2cccc(NC(=O)Nc3ccc(S(=O)(=O)NCc4ccc(S(N)(=O)=O)cc4)cc3)c2)CC1 [SC81458, 4-(3-(3-((4-butylpiperazin-1-yl)(imino)methyl)phenyl)ureido)-N-(4-sulfamoylbenzyl) benzenesulfonamide]
- remaining binding at 10 µM [1]: 100%
- remaining binding at 10 µM [2]: 100%
- remaining binding at 10 µM [3]: 92%
- remaining binding at 10 µM [4]: 97%
- remaining binding at 10 µM [5]: 89%
- remaining binding at 10 µM [6]: 71%
- remaining binding at 10 µM [7]: 100%
- remaining binding at 10 µM [8]: 96%
- remaining binding at 10 µM [9]: 95%
- remaining binding at 10 µM [10]: 80%
- remaining binding at 10 µM [11]: 100%
- remaining binding at 10 µM [12]: 84%
- remaining binding at 10 µM [13]: 100%
- remaining binding at 10 µM [14]: 100%
- remaining binding at 10 µM [15]: 75%
- remaining binding at 10 µM [16]: 61%
- remaining binding at 10 µM [17]: 98%
- remaining binding at 10 µM [18]: 95%
- remaining binding at 10 µM [19]: 69%
- remaining binding at 10 µM [20]: 100%
- remaining binding at 10 µM [21]: 100%
- remaining binding at 10 µM [22]: 100%
- remaining binding at 10 µM [23]: 100%
- remaining binding at 10 µM [24]: 100%
- remaining binding at 10 µM [25]: 100%
- remaining binding at 10 µM [26]: 100%
- remaining binding at 10 µM [27]: 72%
- remaining binding at 10 µM [28]: 100%
- remaining binding at 10 µM [29]: 100%
- remaining binding at 10 µM [30]: 100%
- remaining binding at 10 µM [31]: 91%
- remaining binding at 10 µM [32]: 100%
- remaining binding at 10 µM [33]: 72%
